{"source": "patent US9669025B2", "about": "(INFLAMMATORY RESPONSE RESEARCH, INC., priority 2013, dated 2017)", "key": {"influenza": {"tested_on": "influenza", "details": "2009 H1N1 pandemic; cited from earlier work"}, "[1]": {"details": "with warfarin, theophylline, digoxin, terfenadine, oral contraceptives, or prednisone; cited from earlier work"}, "[2]": {"details": "cited from earlier work; for time to steady state level: montelukast"}, "[3]": {"details": "cited from earlier work"}, "Henoch Schonlein Purpura": {"tested_on": "Henoch Schonlein Purpura", "test": "Example 2 case study: person with Henoch Schonlein Purpura", "type": "in vivo, human", "details": "before the combination; ibuprofen and diphenhydramine", "from_the_text": "Case Study: person with Henoch Schonlein Purpura The patient is a person originally seen and evaluated in London, England, Feb. […] […] The ibuprofen and diphenhydramine were discontinued."}, "[4]": {"tested_on": "Churg-Strauss Syndrome (eosinophilic vasculitis)", "test": "Example 1 case study: person with Churg-Strauss Syndrome", "type": "in vivo, human", "details": "2010, patient history"}, "IL-4, IL-6, and IL-8": {"tested_on": "IL-4, IL-6, and IL-8", "details": "cited from earlier work"}, "[5]": {"details": "in vivo; cited from earlier work"}, "[6]": {"details": "cited from earlier work", "remark": "listed apart in the source"}, "human rhinovirus": {"tested_on": "human rhinovirus", "details": "airway epithelial cells; cited from earlier work"}, "H1 receptor": {"molecular_target": "H1 receptor (Homo sapiens, UniProt P35367)", "sequence (P35367 whole entry)": "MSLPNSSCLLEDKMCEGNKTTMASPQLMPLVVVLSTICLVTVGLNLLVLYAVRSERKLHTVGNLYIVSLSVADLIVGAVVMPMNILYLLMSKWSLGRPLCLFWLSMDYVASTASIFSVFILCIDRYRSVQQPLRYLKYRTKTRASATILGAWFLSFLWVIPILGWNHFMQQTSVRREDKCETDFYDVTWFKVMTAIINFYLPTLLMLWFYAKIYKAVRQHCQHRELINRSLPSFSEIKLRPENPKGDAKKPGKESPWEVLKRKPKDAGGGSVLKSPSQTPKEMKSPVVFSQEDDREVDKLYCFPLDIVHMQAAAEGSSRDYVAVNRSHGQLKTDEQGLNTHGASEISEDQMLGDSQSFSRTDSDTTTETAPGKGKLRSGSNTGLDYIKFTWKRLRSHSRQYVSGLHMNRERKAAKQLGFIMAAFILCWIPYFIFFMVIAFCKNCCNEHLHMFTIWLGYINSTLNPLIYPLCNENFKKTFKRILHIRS", "details": "acidic pH (inflamed tissue), relative to first generation molecules, cited from earlier work"}, "[7]": {"tested_on": "histamine induced wheal and flare", "details": "cited from earlier work"}, "eosinophil migration": {"tested_on": "eosinophil migration", "details": "cited from earlier work"}}, "note": "Read-outs that look alike come from different tables or passages of the source.", "data": [{"molecule": "CCOC(=O)C1=C[C@@H](OC(CC)CC)[C@H](NC(C)=O)[C@@H](N)C1", "note": "[oseltamivir]", "values": [{"measurement": "influenza related lower respiratory tract complications", "setting": "influenza", "value": "did not appear to reduce"}]}, {"molecule": "CC(C)(O)c1ccccc1CC[C@@H](SCC1(CC(=O)O)CC1)c1cccc(/C=C/c2ccc3ccc(Cl)cc3n2)c1", "note": "[montelukast]", "values": [{"measurement": "drug interactions", "setting": "[1]", "value": "no drug interactions"}, {"measurement": "IV plasma concentration area under the curve profile versus oral tablet", "setting": "[2]; IV 7 mg vs approved 10 mg oral tablet", "value": "comparable"}, {"measurement": "linearity of pharmacokinetics", "setting": "[2]; in vivo", "value": "linear pharmacokinetics to 50 mg"}, {"measurement": "time to peak plasma concentration", "setting": "[2]; in vivo", "value": "3 to 4", "unit": "h"}, {"measurement": "time to steady state level", "setting": "[2]", "value": "within two days"}, {"measurement": "time to steady state level", "setting": "[2]; listed as Montelukast", "value": "less than two days"}, {"measurement": "effect of a standard meal on oral bioavailability and Cmax", "setting": "[2]; standard meal", "value": "not affected"}, {"measurement": "doses administered without clinically important adverse experiences", "setting": "[3]; adult patients for 22 weeks", "value": "up to 200 mg/day"}, {"measurement": "doses administered without clinically important adverse experiences", "setting": "[3]; short-term studies, patients for approximately one week", "value": "up to 900 mg/day"}]}, {"molecule": "CC(C)Cc1ccc(C(C)C(=O)O)cc1", "note": "(centres unmarked) [ibuprofen]", "values": [{"measurement": "response of recurrent Henoch Schonlein Purpura", "setting": "Henoch Schonlein Purpura", "value": "poorly responsive"}]}, {"molecule": "CN(C)CCOC(c1ccccc1)c1ccccc1", "note": "[diphenhydramine]", "values": [{"measurement": "response of recurrent Henoch Schonlein Purpura", "setting": "Henoch Schonlein Purpura", "value": "poorly responsive"}]}, {"molecule": "omalizumab", "values": [{"measurement": "trial for severe asthma", "setting": "[4]", "value": "Unsuccessful"}]}, {"molecule": "O=C(O)COCCN1CCN([C@H](c2ccccc2)c2ccc(Cl)cc2)CC1", "note": "[levocetirizine]", "values": [{"measurement": "inflammatory mediators, IL-4, IL-6, and IL-8", "setting": "IL-4, IL-6, and IL-8", "value": "decrease"}, {"measurement": "time to steady state level", "setting": "[5]", "value": 40, "unit": "h"}, {"measurement": "principal side effect at higher doses", "setting": "[6]; higher doses", "value": "Sedation"}, {"measurement": "doses safely administered in humans", "setting": "[6]; human dosing safety studies", "value": "up to 30 mg/day"}, {"measurement": "rhinovirus-induced ICAM-1 and cytokine expression and viral replication", "setting": "human rhinovirus", "value": "inhibits"}, {"measurement": "enhanced receptor affinity over first generation mepyramine", "setting": "H1 receptor", "value": "up to 5 ×"}, {"measurement": "enhanced receptor affinity over first generation mepyramine", "setting": "H1 receptor; listed as Levocetirizine", "value": 5, "unit": "×"}, {"measurement": "potency among the five modern generation antihistamines", "setting": "[7]; histamine induced wheal and flare data", "value": "most potent"}, {"measurement": "effectiveness versus fexofenadine", "setting": "[7]; levocetirizine 5 mg per day vs fexofenadine 180 mg per day", "value": "more effective than fexofenadine"}, {"measurement": "eosinophil migration / quantity", "setting": "eosinophil migration", "value": "decrease"}]}]}
